Assay results reported in PubChem BioAssay (NCI).
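Where inhibition never reached the appropriate level, the endpoint shown equals the highest concentration tested. Otherwise, values were interpolated linearly from a five-concentration, 48-hour dose response in 96-well plates. The concentration for full growth arrest is given as TGI.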

What was measured:
Assay in all cases: NCI-60 cell line screen, 48 h
RXF 393 renal = system: RXF 393 renal
BT-549 breast = system: BT-549 breast
TK-10 renal = system: TK-10 renal
MDA-MB-435 = system: MDA-MB-435
SF-268 CNS = system: SF-268 CNS
MOLT-4 leukemia = system: MOLT-4 leukemia
DU-145 prostate = system: DU-145 prostate
SK-OV-3 ovarian = system: SK-OV-3 ovarian
OVCAR-8 ovarian = system: OVCAR-8 ovarian
M14 melanoma = system: M14 melanoma
HCT-15 colon = system: HCT-15 colon
HS 578T breast = system: HS 578T breast
UACC-62 melanoma = system: UACC-62 melanoma
NCI-H226 lung = system: NCI-H226 lung
MDA-MB-231 breast = system: MDA-MB-231 breast
SK-MEL-5 melanoma = system: SK-MEL-5 melanoma
A549 NSCLC = system: A549 NSCLC
CCRF-CEM leukemia = system: CCRF-CEM leukemia
SN12C renal = system: SN12C renal
NCI-H460 lung = system: NCI-H460 lung
OVCAR-5 ovarian = system: OVCAR-5 ovarian
OVCAR-3 ovarian = system: OVCAR-3 ovarian
SNB-19 CNS = system: SNB-19 CNS
LOX IMVI melanoma = system: LOX IMVI melanoma
SR leukemia = system: SR leukemia
IGROV1 ovarian = system: IGROV1 ovarian
UACC-257 melanoma = system: UACC-257 melanoma
U251 CNS = system: U251 CNS
CAKI-1 renal = system: CAKI-1 renal
SK-MEL-2 melanoma = system: SK-MEL-2 melanoma
NCI-H23 lung = system: NCI-H23 lung
HOP-62 NSCLC = system: HOP-62 NSCLC
T-47D breast = system: T-47D breast
ACHN renal = system: ACHN renal
KM12 colon = system: KM12 colon
HCT-116 colon = system: HCT-116 colon
A498 renal = system: A498 renal
SK-MEL-28 melanoma = system: SK-MEL-28 melanoma
MALME-3M melanoma = system: MALME-3M melanoma
K-562 leukemia = system: K-562 leukemia
UO-31 renal = system: UO-31 renal
NCI-H522 lung = system: NCI-H522 lung
SW-620 colon = system: SW-620 colon
SNB-75 CNS = system: SNB-75 CNS
786-0 renal = system: 786-0 renal
HT29 colon = system: HT29 colon
PC-3 prostate = system: PC-3 prostate
MDA-N = system: MDA-N
RPMI-8226 leukemia = system: RPMI-8226 leukemia
OVCAR-4 ovarian = system: OVCAR-4 ovarian
HOP-92 NSCLC = system: HOP-92 NSCLC
COLO 205 colon = system: COLO 205 colon
NCI/ADR-RES ovarian = system: NCI/ADR-RES ovarian
HCC-2998 colon = system: HCC-2998 colon
SF-295 CNS = system: SF-295 CNS
MCF7 breast = system: MCF7 breast
EKVX NSCLC = system: EKVX NSCLC
HL-60(TB) leukemia = system: HL-60(TB) leukemia
SF-539 CNS = system: SF-539 CNS

SMILES: O=c1c2sc3nc(NCCN4CCCCC4)ncc3c2ncn1-c1ccccc1
- TGI (RXF 393 renal): 84.4 µM
- TGI (BT-549 breast): > 100 µM
- TGI (TK-10 renal): > 100 µM
- TGI (MDA-MB-435): > 100 µM
- TGI (SF-268 CNS): > 100 µM
- TGI (MOLT-4 leukemia): > 100 µM
- TGI (DU-145 prostate): > 100 µM
- TGI (SK-OV-3 ovarian): > 100 µM
- TGI (OVCAR-8 ovarian): > 100 µM
- TGI (M14 melanoma): 39.2 µM
- TGI (HCT-15 colon): > 100 µM
- TGI (HS 578T breast): > 100 µM
- TGI (UACC-62 melanoma): > 100 µM
- TGI (NCI-H226 lung): > 100 µM
- TGI (MDA-MB-231 breast): > 100 µM
- TGI (SK-MEL-5 melanoma): 36.3 µM
- TGI (A549 NSCLC): > 100 µM
- TGI (CCRF-CEM leukemia): > 100 µM
- TGI (SN12C renal): > 100 µM
- TGI (NCI-H460 lung): > 100 µM
- TGI (OVCAR-5 ovarian): > 100 µM
- TGI (OVCAR-3 ovarian): > 100 µM
- TGI (SNB-19 CNS): > 100 µM
- TGI (LOX IMVI melanoma): 41.9 µM
- TGI (SR leukemia): > 100 µM
- TGI (IGROV1 ovarian): > 100 µM
- TGI (UACC-257 melanoma): > 100 µM
- TGI (U251 CNS): > 100 µM
- TGI (CAKI-1 renal): > 100 µM
- TGI (SK-MEL-2 melanoma): > 100 µM
- TGI (NCI-H23 lung): > 100 µM
- TGI (HOP-62 NSCLC): > 100 µM
- TGI (T-47D breast): > 100 µM
- TGI (ACHN renal): > 100 µM
- TGI (KM12 colon): > 100 µM
- TGI (HCT-116 colon): > 100 µM
- TGI (A498 renal): > 100 µM
- TGI (SK-MEL-28 melanoma): > 100 µM
- TGI (MALME-3M melanoma): 58.4 µM
- TGI (K-562 leukemia): > 100 µM
- TGI (UO-31 renal): 49.9 µM
- TGI (NCI-H522 lung): > 100 µM
- TGI (SW-620 colon): > 100 µM
- TGI (SNB-75 CNS): > 100 µM
- TGI (786-0 renal): > 100 µM
- TGI (HT29 colon): > 100 µM
- TGI (PC-3 prostate): > 100 µM
- TGI (MDA-N): > 100 µM
- TGI (RPMI-8226 leukemia): > 100 µM
- TGI (OVCAR-4 ovarian): > 100 µM
- TGI (HOP-92 NSCLC): 95.5 µM
- TGI (COLO 205 colon): > 100 µM
- TGI (NCI/ADR-RES ovarian): > 100 µM
- TGI (HCC-2998 colon): > 100 µM
- TGI (SF-295 CNS): > 100 µM

SMILES: CC(C)=CCC[C@@H](C)C1=C(O)C(c2c(I)c(=O)n(C)c(=O)n2C)=C(C)C(=O)C1=O
- TGI (MCF7 breast): > 100 µM
- TGI (BT-549 breast): > 100 µM
- TGI (TK-10 renal): > 100 µM
- TGI (MDA-MB-435): > 100 µM
- TGI (SF-268 CNS): > 100 µM
- TGI (EKVX NSCLC): > 100 µM
- TGI (MOLT-4 leukemia): > 100 µM
- TGI (DU-145 prostate): > 100 µM
- TGI (SK-OV-3 ovarian): > 100 µM
- TGI (OVCAR-8 ovarian): > 100 µM
- TGI (M14 melanoma): > 100 µM
- TGI (HCT-15 colon): > 100 µM
- TGI (HS 578T breast): > 100 µM
- TGI (HL-60(TB) leukemia): > 100 µM
- TGI (NCI-H226 lung): > 100 µM
- TGI (A549 NSCLC): > 100 µM
- TGI (CCRF-CEM leukemia): > 100 µM
- TGI (SN12C renal): > 100 µM
- TGI (NCI-H460 lung): > 100 µM
- TGI (OVCAR-5 ovarian): > 100 µM
- TGI (OVCAR-3 ovarian): > 100 µM
- TGI (SNB-19 CNS): > 100 µM
- TGI (LOX IMVI melanoma): > 100 µM
- TGI (IGROV1 ovarian): > 100 µM
- TGI (UACC-257 melanoma): > 100 µM
- TGI (CAKI-1 renal): > 100 µM
- TGI (SK-MEL-2 melanoma): > 100 µM
- TGI (NCI-H23 lung): > 100 µM
- TGI (HOP-62 NSCLC): > 100 µM
- TGI (T-47D breast): > 100 µM
- TGI (ACHN renal): > 100 µM
- TGI (KM12 colon): > 100 µM
- TGI (HCT-116 colon): > 100 µM
- TGI (A498 renal): > 100 µM
- TGI (SK-MEL-28 melanoma): > 100 µM
- TGI (MALME-3M melanoma): > 100 µM
- TGI (K-562 leukemia): > 100 µM
- TGI (UO-31 renal): > 100 µM
- TGI (SW-620 colon): > 100 µM
- TGI (SNB-75 CNS): > 100 µM
- TGI (786-0 renal): > 100 µM
- TGI (SF-539 CNS): > 100 µM
- TGI (HT29 colon): > 100 µM
- TGI (PC-3 prostate): > 100 µM
- TGI (MDA-N): > 100 µM
- TGI (RPMI-8226 leukemia): > 100 µM
- TGI (OVCAR-4 ovarian): > 100 µM
- TGI (HOP-92 NSCLC): > 100 µM
- TGI (COLO 205 colon): > 100 µM
- TGI (NCI/ADR-RES ovarian): > 100 µM
- TGI (HCC-2998 colon): > 100 µM
- TGI (SF-295 CNS): > 100 µM

SMILES: COc1cc(/C=N/NC(=O)c2ccc(NC(C)=O)cc2OC)ccc1O
- TGI (MCF7 breast): > 100 µM
- TGI (RXF 393 renal): > 100 µM
- TGI (BT-549 breast): > 100 µM
- TGI (MDA-MB-435): > 100 µM
- TGI (SF-268 CNS): > 100 µM
- TGI (EKVX NSCLC): > 100 µM
- TGI (MOLT-4 leukemia): > 100 µM
- TGI (DU-145 prostate): > 100 µM
- TGI (SK-OV-3 ovarian): > 100 µM
- TGI (OVCAR-8 ovarian): > 100 µM
- TGI (M14 melanoma): > 100 µM
- TGI (HCT-15 colon): > 100 µM
- TGI (HS 578T breast): 81.6 µM
- TGI (UACC-62 melanoma): > 100 µM
- TGI (HL-60(TB) leukemia): > 100 µM
- TGI (NCI-H226 lung): > 100 µM
- TGI (SK-MEL-5 melanoma): > 100 µM
- TGI (A549 NSCLC): > 100 µM
- TGI (CCRF-CEM leukemia): > 100 µM
- TGI (SN12C renal): > 100 µM
- TGI (OVCAR-5 ovarian): > 100 µM
- TGI (OVCAR-3 ovarian): > 100 µM
- TGI (SNB-19 CNS): > 100 µM
- TGI (LOX IMVI melanoma): > 100 µM
- TGI (SR leukemia): > 100 µM
- TGI (IGROV1 ovarian): > 100 µM
- TGI (CAKI-1 renal): > 100 µM
- TGI (SK-MEL-2 melanoma): 93.3 µM
- TGI (NCI-H23 lung): > 100 µM
- TGI (T-47D breast): > 100 µM
- TGI (ACHN renal): > 100 µM
- TGI (KM12 colon): > 100 µM
- TGI (HCT-116 colon): > 100 µM
- TGI (A498 renal): > 100 µM
- TGI (SK-MEL-28 melanoma): > 100 µM
- TGI (MALME-3M melanoma): > 100 µM
- TGI (K-562 leukemia): > 100 µM
- TGI (UO-31 renal): > 100 µM
- TGI (NCI-H522 lung): > 100 µM
- TGI (SW-620 colon): > 100 µM
- TGI (SNB-75 CNS): 73 µM
- TGI (786-0 renal): > 100 µM
- TGI (SF-539 CNS): > 100 µM
- TGI (HT29 colon): > 100 µM
- TGI (PC-3 prostate): > 100 µM
- TGI (MDA-N): > 100 µM
- TGI (RPMI-8226 leukemia): > 100 µM
- TGI (OVCAR-4 ovarian): > 100 µM
- TGI (HOP-92 NSCLC): 54.3 µM
- TGI (COLO 205 colon): > 100 µM
- TGI (NCI/ADR-RES ovarian): > 100 µM
- TGI (SF-295 CNS): > 100 µM
